We go through twelve compounds from patent US6747016B1, “Substituted purine derivatives as inhibitors of cell adhesion” (Aventis Pharma Deutschland GmbH, priority 1999, dated 2004).

In general, IC50 refers to the midpoint of a concentration-inhibition curve. Lower therefore signals greater potency.

Assay [1] has as its system bone resorption by osteoclasts. The experiment in a line: Pit Assay (osteoclast resorption test). Format: cell-based. As to conditions: inhibition of bone resorption. The text has this:
The inhibition of bone resorption by the compounds of the invention can be determined, for example, with the aid of an osteoclast resorption test (“Pit Assay”), for example analogously to WO-A-95/32710 which is incorporated herein by reference.

In assay [2] the target is human vitronectin receptor αvβ3 (Homo sapiens, UniProt P05106+P06756). As to the kind of experiment: Kistrin binding assay (K/VnR, αvβ3 ELISA test). As to conditions: inhibition of binding of kistrin to human vitronectin receptor. The text has this:
The inhibition of the binding of kistrin to human vitronectin receptor (VnR) described below is a test method by which the antagonistic action of the compounds of the invention on the vitronectin receptor αvβ3 can be determined (αvβ3 ELISA Test; the test method is abbreviated as “K/VnR” in the listing of the test results).
Kistrin is purified according to the methods of Dennis et al., as described in Proc. Natl. Acad. Sci. USA 87 (1989) 2471 and Proteins: Structure, Function and Genetics 15 (1993) 312.
Purification of Human Vitronectin Receptor (αvβ3)
144 (1987) 475. Human vitronectin receptor αvβ3 can also be obtained from some cell lines (for example from 293 cells, a human embryonic kidney cell line) which are co-transfected with DNA sequences for both subunits αv and β3 of the vitronectin receptor. The subunits are extracted with octyl glycoside and then chromatographed through concanavalin A, heparin-Sepharose and S-300.
Murine monoclonal antibodies which are specific for the β3 subunits of the vitronectin receptor, are prepared according to the method of Newman et al., Blood, 1985, 227, or by a similar process. The rabbit Fab 2 anti-mouse Fc conjugate to horseradish peroxidase (anti-mouse Fc HRP) was obtained from Pel Freeze (Catalog No. 715 305-1).
The ability of substances to inhibit the binding of kistrin to the vitronectin receptor can be determined using an ELISA test. For this purpose, Nunc 96-well microtiter plates are coated with a solution of kistrin (0.002 mg/ml) according to the method of Dennis et al., as described in Proteins: Structure, Function and Genetics 15 (1993) 312. The plates are then washed twice with PBS/0.05% Tween-20 and blocked by incubating (60 min) with bovine serum albumin (BSA, 0.5%, RIA grade or better) in buffer solution (Tris-HCl (50 mM), NaCl (100 mM), MgCl2 (1 mM), CaCl2 (1 mM), MnCl2 (1 mM), pH 7). Solutions of known inhibitors and of the test substances are prepared in concentrations from 2×10^−12 to 2×10^−6 mol/l in assay buffer (BSA (0.5%, RIA grade or better); Tris-HCl (50 mM), NaCl (100 mM), MgCl2 (1 mM), CaCl2 (1 mM), MnCl2 (1 mM), pH 7). The blocked plates are emptied, and in each case 0.025 ml of this solution which contains a defined concentration (2×10^−12 to 2×10^−6 mol/l) either of a known inhibitor or of a test substance, are added to each well. 0.025 ml of a solution of the vitronectin receptor in assay buffer (0.03 mg/ml) is pipetted into each well of the plate and the plate is incubated at room temperature for 60-180 min on a shaker. In the meantime, a solution (6 ml/plate) of a murine monoclonal antibody specific for the β3 subunit of the vitronectin receptor is prepared in assay buffer (0.0015 mg/ml). A second rabbit antibody (0.001 ml of stock solution/6 ml of the murine monoclonal anti-β3 antibody solution) which is an anti-mouse Fc HRP antibody conjugate is added to this solution, and this mixture of murine anti-β3 antibody and rabbit anti-mouse Fc HRP antibody conjugate is incubated during the time of the receptor-inhibitor incubation. The test plates are washed four times with PBS solution which contains 0.05% Tween-20, and in each case 0.05 ml/well of the antibody mixture is pipetted into each well of the plate and incubated for 60-180 min. The plate is washed four times with PBS/0.05% Tween-20 and then developed with 0.05 ml/well of a PBS solution which contains 0.67 mg/ml of o-phenylenediamine and 0.012% of H2O2. Alternatively to this, o-phenylenediamine can be employed in a buffer (pH 5) which contains Na3PO4 and citric acid. The color development is stopped using 1 N H2SO4 (0.05 ml/well). The absorption for each well is measured at 492-405 nm and the data are evaluated by standard methods.
(In general: In an ELISA, binding on a coated surface is turned into a signal by an enzyme label.)

Assay [3] addresses 293 cells cotransfected with αv and β3 subunits of the vitronectin receptor αvβ3, binding to human vitronectin (Homo sapiens, UniProt P05106+P06756). The experiment in a line: Vitronectin/293 cell test (Vn/293 cell test). Format: cell-based. As to conditions: inhibition of binding of 293 cells to human vitronectin. The procedure: 2) Vitronectin/293 Cell Test
In this test the inhibition of binding of 293 cells to human vitronectin (Vn) by the compounds of the invention is determined (the test method is abbreviated as Vn/293 cell test in the listing of the test results).
Purification of Human Vitronectin
Human vitronectin was isolated from human plasma and purified by affinity chromatography according to the method of Yatohgo et al., Cell Structure and Function 23 (1988) 281.
293 cells, a human embryonic kidney cell line, which were cotransfected with DNA sequences for the αv and β3 subunits of the vitronectin receptor αvβ3, were selected for a high rate of expression (>500,000 αvβ3 receptors/cell) according to the FACS method. The selected cells were cultured and sorted again by means of FACS in order to obtain a stable cell line (15 D) with expression rates>1,000,000 copies of αvβ3 per cell.
A Linbro 96-well tissue culture plate with a flat bottom was coated overnight at 4° C. with human vitronectin (0.01 mg/ml, 0.05 ml/well) in phosphate-buffered saline solution (PBS) and then blocked with 0.5% strength BSA (bovine serum albumin). Solutions of the test substances from 10^−10 mol/l to 2×10^−3 mol/l in glucose-containing DMEM medium were prepared and 0.05 ml/well of the solution were added to the plate in each case. The cells which expressed high levels of αvβ3 (for example 15 D) were suspended in glucose-containing DMEM medium and the suspension was adjusted to a content of 25,000 cells/0.05 ml of medium. 0.05 ml of this cell suspension was added to each well and the plate was incubated at 37° C. for 90 min. The plate was washed 3 times with warm PBS in order to remove unbound cells. The bound cells were lyzed in citrate buffer (25 mM, pH 5.0) which contained 0.25% Triton X-100. The hexoseamidase substrate p-nitrophenyl-N-acetyl-β-D-glucosaminide was then added and the plate was incubated at 37° C. for 90 min. The reaction was stopped with a glycine (50 mM)/EDTA (5 mM) buffer (pH 10.4) and the absorption of each well was measured at 405 to 650 nm. The data were analyzed according to standard methods.

Sequence of 293 cells cotransfected with αv and β3 subunits of the vitronectin receptor αvβ3, binding to human vitronectin (P05106 whole entry): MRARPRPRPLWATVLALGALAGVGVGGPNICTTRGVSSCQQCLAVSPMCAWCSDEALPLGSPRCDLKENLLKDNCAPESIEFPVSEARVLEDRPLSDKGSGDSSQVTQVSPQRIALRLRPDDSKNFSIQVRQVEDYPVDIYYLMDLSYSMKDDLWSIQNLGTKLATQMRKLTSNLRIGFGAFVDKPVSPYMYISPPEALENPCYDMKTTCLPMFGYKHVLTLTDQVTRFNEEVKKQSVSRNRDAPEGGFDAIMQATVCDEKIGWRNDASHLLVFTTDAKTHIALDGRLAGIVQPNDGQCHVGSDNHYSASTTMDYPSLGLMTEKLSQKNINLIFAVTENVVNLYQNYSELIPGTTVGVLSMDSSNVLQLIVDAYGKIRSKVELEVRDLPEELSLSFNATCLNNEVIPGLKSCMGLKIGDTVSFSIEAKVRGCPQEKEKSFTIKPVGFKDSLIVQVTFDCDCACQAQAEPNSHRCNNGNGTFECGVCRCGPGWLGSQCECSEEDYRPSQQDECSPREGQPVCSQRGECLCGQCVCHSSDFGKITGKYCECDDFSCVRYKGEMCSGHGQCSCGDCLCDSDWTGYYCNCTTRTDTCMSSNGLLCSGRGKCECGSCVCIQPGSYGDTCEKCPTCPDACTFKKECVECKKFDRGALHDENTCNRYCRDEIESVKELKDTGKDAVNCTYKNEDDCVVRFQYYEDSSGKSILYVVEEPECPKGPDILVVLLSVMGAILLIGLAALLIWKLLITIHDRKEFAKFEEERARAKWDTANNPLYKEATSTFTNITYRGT
Sequence of 293 cells cotransfected with αv and β3 subunits of the vitronectin receptor αvβ3, binding to human vitronectin (P06756 whole entry): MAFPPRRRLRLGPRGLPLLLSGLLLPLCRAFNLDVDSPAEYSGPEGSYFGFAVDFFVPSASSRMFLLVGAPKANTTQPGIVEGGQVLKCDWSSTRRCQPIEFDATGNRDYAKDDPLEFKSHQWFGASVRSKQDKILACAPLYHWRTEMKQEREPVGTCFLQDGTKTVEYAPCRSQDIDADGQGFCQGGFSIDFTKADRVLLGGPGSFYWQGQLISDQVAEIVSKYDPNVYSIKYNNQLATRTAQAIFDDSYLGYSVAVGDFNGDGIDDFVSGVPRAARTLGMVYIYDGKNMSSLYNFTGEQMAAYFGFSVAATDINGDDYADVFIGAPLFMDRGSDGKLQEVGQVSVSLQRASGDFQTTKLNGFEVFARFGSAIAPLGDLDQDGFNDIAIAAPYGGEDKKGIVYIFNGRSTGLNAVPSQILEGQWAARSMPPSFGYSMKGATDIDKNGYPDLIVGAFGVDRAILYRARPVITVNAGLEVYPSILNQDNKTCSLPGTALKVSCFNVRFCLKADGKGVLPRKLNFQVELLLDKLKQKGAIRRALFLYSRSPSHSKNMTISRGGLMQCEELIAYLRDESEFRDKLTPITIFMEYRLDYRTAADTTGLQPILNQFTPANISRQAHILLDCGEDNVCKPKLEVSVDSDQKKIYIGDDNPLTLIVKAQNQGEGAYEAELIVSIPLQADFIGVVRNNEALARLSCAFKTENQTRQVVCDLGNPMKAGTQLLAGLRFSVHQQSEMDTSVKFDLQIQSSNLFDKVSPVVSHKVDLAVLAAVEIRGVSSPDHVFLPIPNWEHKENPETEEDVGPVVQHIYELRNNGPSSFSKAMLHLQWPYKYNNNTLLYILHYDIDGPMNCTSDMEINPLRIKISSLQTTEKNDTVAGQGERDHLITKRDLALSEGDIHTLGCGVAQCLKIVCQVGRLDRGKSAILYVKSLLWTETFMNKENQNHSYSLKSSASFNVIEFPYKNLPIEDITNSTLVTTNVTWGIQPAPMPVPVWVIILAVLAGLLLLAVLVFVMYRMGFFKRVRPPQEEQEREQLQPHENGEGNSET
Sequence of human vitronectin receptor αvβ3 (P06756 31-889 limits assumed): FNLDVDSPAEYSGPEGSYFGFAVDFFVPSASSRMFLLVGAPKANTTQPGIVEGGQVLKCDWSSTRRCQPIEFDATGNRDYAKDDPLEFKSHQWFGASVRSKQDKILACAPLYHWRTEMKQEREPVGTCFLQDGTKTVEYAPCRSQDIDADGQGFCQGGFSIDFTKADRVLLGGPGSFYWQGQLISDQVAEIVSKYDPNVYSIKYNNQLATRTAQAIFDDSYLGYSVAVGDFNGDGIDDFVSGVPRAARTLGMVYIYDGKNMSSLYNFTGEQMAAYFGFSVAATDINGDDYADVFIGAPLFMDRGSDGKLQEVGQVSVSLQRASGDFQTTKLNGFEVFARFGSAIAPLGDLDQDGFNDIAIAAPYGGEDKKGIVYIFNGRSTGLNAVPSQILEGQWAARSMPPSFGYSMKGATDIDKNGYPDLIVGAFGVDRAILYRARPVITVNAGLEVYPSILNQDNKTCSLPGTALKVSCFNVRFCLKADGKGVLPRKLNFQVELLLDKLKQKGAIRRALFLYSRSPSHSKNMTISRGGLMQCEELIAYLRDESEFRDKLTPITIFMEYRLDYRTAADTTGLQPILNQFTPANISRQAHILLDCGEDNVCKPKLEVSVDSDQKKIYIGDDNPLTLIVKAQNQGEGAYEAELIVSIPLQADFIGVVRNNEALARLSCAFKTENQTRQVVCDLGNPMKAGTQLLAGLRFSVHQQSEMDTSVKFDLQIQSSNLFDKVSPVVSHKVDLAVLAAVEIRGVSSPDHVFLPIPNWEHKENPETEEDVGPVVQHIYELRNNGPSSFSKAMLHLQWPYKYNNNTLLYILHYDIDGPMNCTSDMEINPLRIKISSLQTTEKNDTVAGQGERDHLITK
Sequence of human vitronectin receptor αvβ3 (P06756 891-1048 limits assumed): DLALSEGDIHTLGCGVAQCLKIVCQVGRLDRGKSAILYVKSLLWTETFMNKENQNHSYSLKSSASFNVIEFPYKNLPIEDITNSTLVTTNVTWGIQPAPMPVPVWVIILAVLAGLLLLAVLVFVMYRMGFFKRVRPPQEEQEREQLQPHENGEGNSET
Sequence of human vitronectin receptor αvβ3 (P05106 27-788): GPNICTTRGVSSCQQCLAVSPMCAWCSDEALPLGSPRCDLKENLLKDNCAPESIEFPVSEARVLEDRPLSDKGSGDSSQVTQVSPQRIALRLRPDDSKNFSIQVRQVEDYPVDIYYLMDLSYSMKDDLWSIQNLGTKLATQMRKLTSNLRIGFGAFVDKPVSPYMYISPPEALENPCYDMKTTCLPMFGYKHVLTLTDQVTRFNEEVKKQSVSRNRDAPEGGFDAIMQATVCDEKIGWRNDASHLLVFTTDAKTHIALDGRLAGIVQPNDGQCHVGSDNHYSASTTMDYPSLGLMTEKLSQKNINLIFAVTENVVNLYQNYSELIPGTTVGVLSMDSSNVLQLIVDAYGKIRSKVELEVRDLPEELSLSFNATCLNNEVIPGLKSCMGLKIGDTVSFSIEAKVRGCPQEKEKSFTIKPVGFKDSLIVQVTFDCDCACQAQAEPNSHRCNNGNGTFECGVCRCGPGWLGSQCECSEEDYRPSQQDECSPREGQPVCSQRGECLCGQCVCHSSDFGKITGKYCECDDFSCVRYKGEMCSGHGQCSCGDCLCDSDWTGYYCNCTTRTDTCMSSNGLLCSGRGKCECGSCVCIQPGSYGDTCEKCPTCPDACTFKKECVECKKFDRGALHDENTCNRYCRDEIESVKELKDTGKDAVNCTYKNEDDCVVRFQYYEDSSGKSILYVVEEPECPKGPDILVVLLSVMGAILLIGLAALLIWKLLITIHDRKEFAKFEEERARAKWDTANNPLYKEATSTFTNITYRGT

`O=C(NC1=NCCCN1)C1CCN(c2ncnc3c2ncn3C[C@H](NS(=O)(=O)c2cccc3ccccc23)C(=O)O)CC1` [Example 1, (2S)-2-(Naphthalene-1-sulfonylamino)-3-(6-(4-(1 ,4,5,6-tetrahydropyrimidin-2-ylcarbamoyl)-piperidin-1-yl)-purin-9-yl)-propionic acid]: the IC50 in assay [1] was 0.8 nM; in assay [2], 1.9 nM; in assay [3], 30 nM.

Turning to `O=C(NC1=NCCCN1)C1CCN(c2ncnc3c2ncn3C[C@H](NS(=O)(=O)c2ccc3ccccc3c2)C(=O)O)CC1` [Example 2, (2S)-2-(Naphthalene-2-sulfonylamino)-3-(6-(4-(1,4,5,6-tetrahydropyrimidin-2-ylcarbamoyl)-piperidin-1-yl)-purin-9-yl)-propionic acid], the IC50 in assay [1] is 2.3 nM; in assay [2], 2.5 nM; in assay [3], 9 nM.

Consider `CC(C)(C)c1ccc(S(=O)(=O)N[C@@H](Cn2cnc3c(N4CCC(C(=O)NC5=NCCCN5)CC4)ncnc32)C(=O)O)cc1` [Example 3, (2S)-2-(4-tert-Butyl-benzenesulfonylamino)-3-(6-(4-(1,4,5,6-tetrahydropyrimidin-2-ylcarbamoyl)-piperidin-1-yl)-purin-9-yl)-propionic acid], for which the IC50 is 4.5 nM in assay [2] and 67 nM in assay [3].

`CCCS(=O)(=O)N[C@@H](Cn1cnc2c(N3CCC(C(=O)NC4=NCCCN4)CC3)ncnc21)C(=O)O` [Example 4, (2S)-2-(Propane-1-sulfonylamino)-3-(6-(4-(1,4,5,6-tetrahydropyrimidin-2-ylcarbamoyl)-piperidin-1-yl)-purin-9-yl)-propionic acid]: the IC50 in assay [2] was 25 nM; in assay [3], 1400 nM.

As to `O=C(NC1=NCCCN1)C1CCN(c2ncnc3c2ncn3C[C@H](NS(=O)(=O)c2ccc(C(F)(F)F)cc2)C(=O)O)CC1` [Example 5, (2S)-3-(6-(4-(1,4,5,6-Tetrahydropyrimidin-2-ylcarbamoyl)-piperidin-1-yl)-purin-9-yl)-2-(4-trifluoromethyl-benzenesulfonylamino)-propionic acid], the IC50 amounted to 15 nM in assay [1], 3.2 nM in assay [2] and 28 nM in assay [3].

Turning to `O=C(NC1=NCCCN1)C1CCN(c2ncnc3c2ncn3C[C@H](NS(=O)(=O)c2cccc(C(F)(F)F)c2)C(=O)O)CC1` [Example 6, (2S)-3-(6-(4-(1,4,5,6-Tetrahydropyrimidin-2-ylcarbamoyl)-piperidin-1-yl)-purin-9-yl)-2-(3-trifluoromethyl-benzenesulfonylamino)-propionic acid], the concentration for half-maximal inhibition (IC50) is 3.4 nM in assay [2] and 42 nM in assay [3].

In the case of `O=C(NC1=NCCCN1)C1CCN(c2ncnc3c2ncn3C[C@H](NS(=O)(=O)Cc2ccccc2)C(=O)O)CC1` [Example 7, (2S)-2-Phenylmethanesulfonylamino-3-(6-(4-(1,4,5,6-tetrahydropyrimidin-2-ylcarbamoyl)-piperidin-1-yl)-purin-9-yl)-propionic acid], the results for the 50% inhibitory concentration (IC50) in assay [2] and in assay [3] were 23 nM and 500 nM, respectively.

In the case of `O=C(NC1=NCCCN1)C1CCN(c2ncnc3c2ncn3C[C@H](NS(=O)(=O)C(F)(F)F)C(=O)O)CC1` [Example 8, (2S)-3-(6-(4-(1,4,5,6-Tetrahydropyrimidin-2-ylcarbamoyl)-piperidin-1-yl)-purin-9-yl)-2-trifluoromethanesulfonylamino-propionic acid], the IC50 in assay [2] was 85 nM. This lies in the double-digit nanomolar range.

As to `O=C(NC1=NCCCN1)C1CCN(c2ncnc3c2ncn3C[C@H](NS(=O)(=O)CC(F)(F)F)C(=O)O)CC1` [Example 9, (2S)-3-(6-(4-(1,4,5,6-Tetrahydropyrimidin-2-ylcarbamoyl)-piperidin-1-yl)-purin-9-yl)-2-(2,2,2-trifluoro-ethanesulfonylamino)-propionic acid], the IC50 in assay [2] was determined as 38 nM; in assay [3], 2500 nM.

In the case of `CC(C)CS(=O)(=O)N[C@@H](Cn1cnc2c(N3CCC(C(=O)NC4=NCCCN4)CC3)ncnc21)C(=O)O` [Example 10, (2S)-2-(2-Methylpropane-1-sulfonylamino)-3-(6-(4-(1,4,5,6-tetrahydropyrimidin-2-ylcarbamoyl)-piperidin-1-yl)-purin-9-yl)-propionic acid], the IC50 in assay [2] worked out at 4.2 nM; in assay [3], 1120 nM.

For the compound `Cc1ccc(S(=O)(=O)N[C@@H](Cn2cnc3c(N4CCC(C(=O)NC5=NCCCN5)CC4)ncnc32)C(=O)O)cc1` [Example 11, (2S)-3-(6-(4-(1,4,5,6-Tetrahydropyrimidin-2-ylcarbamoyl)-piperidin-1-yl)-purin-9-yl)-2-(toluene-4-sulfonylamino)-propionic acid], the IC50 was 6.5 nM in assay [2] and 87 nM in assay [3].

As to `Cc1cc(C)c(S(=O)(=O)N[C@@H](Cn2cnc3c(N4CCC(C(=O)NC5=NCCCN5)CC4)ncnc32)C(=O)O)c(C)c1` [Example 12, (2S)-3-(6-(4-(1,4,5,6-Tetrahydropyrimidin-2-ylcarbamoyl)-piperidin-1-yl)-purin-9-yl)-2-(2,4,6-trimethyl-benzenesulfonylamino)-propionic acid], the IC50 in assay [1] was 26 nM; in assay [2] it was 5 nM; in assay [3], 38 nM.
